# Values quoted from earlier work, collected in US20260110035A1, “DNA REPAIR SIGNATURE AND PREDICTION OF RESPONSE FOLLOWING CANCER THERAPY” (priority 2022, published 2026).
# Tested on: stage II/III TNBC
# Details: BrighTNess; only carboplatin (Arm B) vs veliparib+carboplatin (Arm A), with paclitaxel followed by AC
structure (smiles),measurement,value
N.N.O=C([O-])C1(C(=O)[O-])CCC1.[Pt+2] [carboplatin],difference in pCR rates between Arm B and Arm A,no substantial difference
